Source: ChEMBL document CHEMBL1147802, “Diarylacetylene piperidinyl amides as novel anxiolytics” (Bioorg Med Chem Lett, 2006)
pIC50: −log10 of the molar value.

Assays:
Substance-P receptor [1] = target: T1, Substance-P receptor (Homo sapiens, UniProt P25103); experiment: Inhibition of human NK1 receptor expressed in U373MG cells at 10 uM; assay type: cell-based; conditions: U-373MG ATCC
[2] = Stability in human liver microsomes after 90 min; assay type: ADME, Microsome; conditions: read-out: Stability
[3] = Stability in rat liver microsomes after 90 min; assay type: ADME, Microsome; conditions: read-out: Stability
[4] = Oral bioavailability in rat at 3 mg/kg, po; assay type: ADME, organism-based; conditions: in vivo
[5] = Oral bioavailability in rat at 10 mg/kg, po; assay type: ADME, organism-based; conditions: in vivo
Mus musculus [6] = experiment: Anxiolytic activity in mouse after oral administration by EPM test; assay type: functional; conditions: read-out: MED
Mus musculus [7] = experiment: Anxiolytic activity in orally dosed mouse assessed as reversal of DOI-induced head shake; assay type: functional; conditions: po, read-out: MED
[8] = Stability in human liver microsomes after 60 min; assay type: ADME, Microsome; conditions: read-out: Stability
[9] = Stability in rat liver microsomes after 60 min; assay type: ADME, Microsome; conditions: read-out: Stability
[10] = Oral bioavailability in rat at 15 mg/kg, po; assay type: ADME, organism-based; conditions: in vivo
[11] = Half life in rat at 15 mg/kg, po; assay type: ADME, organism-based; set-up: dose 15 mg/kg, route oral; conditions: in vivo
[12] = Bioavailability in cynomolgus monkey; assay type: ADME, organism-based, Macaca fascicularis; conditions: in vivo
[13] = Half life in cynomolgus monkey; assay type: ADME, organism-based, Macaca fascicularis; conditions: in vivo
[14] = target: T2, Substance-K receptor (Homo sapiens) (UniProt P21452); experiment: Inhibition of human NK2 receptor expressed in CHO cells at 10 uM; assay type: cell-based
T2 sequence (whole entry): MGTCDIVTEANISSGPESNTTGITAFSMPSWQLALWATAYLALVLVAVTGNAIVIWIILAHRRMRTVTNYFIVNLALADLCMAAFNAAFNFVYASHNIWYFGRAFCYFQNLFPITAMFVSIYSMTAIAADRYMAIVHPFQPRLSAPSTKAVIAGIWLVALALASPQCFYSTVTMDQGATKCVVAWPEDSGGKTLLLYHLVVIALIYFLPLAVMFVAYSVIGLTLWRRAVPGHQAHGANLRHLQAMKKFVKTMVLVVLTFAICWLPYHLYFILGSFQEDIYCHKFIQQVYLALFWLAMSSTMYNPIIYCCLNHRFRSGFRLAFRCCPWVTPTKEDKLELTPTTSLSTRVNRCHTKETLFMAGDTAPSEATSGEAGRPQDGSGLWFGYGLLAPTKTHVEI

Substance-P receptor [15] = target: T1, Substance-P receptor; experiment: Inhibition of human NK1 receptor expressed in U373MG cells; assay type: cell-based, U-373MG ATCC
Substance-K receptor = target: T3, Substance-K receptor (Homo sapiens, UniProt P21452); experiment: Inhibition of human NK2 receptor expressed in CHO cells; assay type: cell-based
T3 sequence (P21452 whole entry): T2 sequence (whole entry)

[16] = Oral bioavailability in rat at 40 mg/kg, po; assay type: ADME, organism-based; conditions: in vivo
[17] = Half life in rat at 40 mg/kg, po; assay type: ADME, organism-based; set-up: dose 40 mg/kg, route oral; conditions: in vivo
Homo sapiens = species on record: Homo sapiens; experiment: Inhibition of GABA transporter at 10 uM

T1 sequence (P25103 whole entry): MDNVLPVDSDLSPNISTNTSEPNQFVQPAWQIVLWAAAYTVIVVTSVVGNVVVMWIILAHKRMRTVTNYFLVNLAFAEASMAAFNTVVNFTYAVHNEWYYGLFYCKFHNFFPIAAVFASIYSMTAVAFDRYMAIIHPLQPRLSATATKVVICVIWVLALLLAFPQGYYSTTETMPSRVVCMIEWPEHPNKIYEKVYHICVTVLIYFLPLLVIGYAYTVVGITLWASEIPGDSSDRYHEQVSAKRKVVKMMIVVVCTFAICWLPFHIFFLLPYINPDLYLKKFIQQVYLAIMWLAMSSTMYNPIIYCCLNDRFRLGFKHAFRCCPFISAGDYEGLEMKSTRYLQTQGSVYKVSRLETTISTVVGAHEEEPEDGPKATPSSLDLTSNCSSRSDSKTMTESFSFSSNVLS

inhibition (Substance-P receptor [1]) | remaining at 1.5 h [2] | remaining at 1.5 h [3] | inhibition [14] | pIC50 (Substance-P receptor [15]) | pIC50 (Substance-K receptor) | Compound | minimal effective dose (Mus musculus [6]) | minimal effective dose (Mus musculus [7]) | also measured
18% | 80% | 97% |  |  |  | O=C(CC1CCN(C(=O)c2cccc(C#Cc3ccccn3)c2)CC1)Nc1ccc(O)cc1 | 3 mg/kg | 20 mg/kg | bioavailability [4]: < 2%; bioavailability [5]: < 2%
16% |  |  | 8% |  |  | O=C(CC1CCN(C(=O)c2cccc(C#Cc3ccccn3)c2)CC1)Nc1ccc(F)cc1F | 1 mg/kg | 0.1 mg/kg | remaining at 1 h [8]: 15%; remaining at 1 h [9]: 0.1%; bioavailability [10]: 7%; half-life [11]: 2.7 h; bioavailability [12]: 38%; half-life [13]: 3.1 h
96% |  |  | 96% | 6.00 | 6.00 | O=C(CC1CCN(C(=O)c2cccc(C#Cc3ccccn3)c2)CC1)Nc1ccc(F)cc1 |  |  | 
96% |  |  | 97% | 6.19 | 6.26 | O=C(CC1CCN(C(=O)c2cccc(C#Cc3ccccn3)c2)CC1)Nc1ccccc1F |  |  | 
37% | 35% | 63% | 11% |  |  | O=C(CC1CCN(C(=O)c2cccc(C#Cc3ccccn3)c2)CC1)Nc1ccccc1 | 1 mg/kg | 20 mg/kg | bioavailability [16]: 65%; half-life [17]: 3.1 h; inhibition (Homo sapiens): 60%
28% |  |  | 7% |  |  | O=C(CC1CCN(C(=O)c2cccc(C#Cc3ccccc3)c2)CC1)Nc1ccccc1 |  |  | 
